# Where a SMILES comes first, the peptide text is derived from it.
# Experiments:
# [1] = test system: Plutella xylostella; assay: Leaf dip assay 2 (based on IRAC susceptibility test method 019); type: in vivo; conditions: unformulated peptide at 1x10^-4 M; leaf disc on 1% agar; after 96 hours; Figure 6
# Experimental: The assay was carried out based on IRAC susceptibility test method 019 (https://irac-online.org/methods/aphids-adultnymphs/). Fill a small 4 cm wide 3 cm high dish with a 1% agar treatment solution of the active chemical or control (ensuring 1 cm gap between the agar and the lid) and leave to set. Dip a 2.5 cm leaf disc into 3 ml of treatment solution allowing the treatment to coat the leaf. Leave the disc to dry for 1 hour and place onto the set agar. Place insects (Plutella xylostella) onto each of the leaf discs. Each unit is sealed with a close-fitting, ventilated lid. Place the agar dishes in a small plastic tray lined with moist tissue paper and ensure the water trays in the bottom of the incubator are filled with clean water and place within the incubator. An assessment of mortality is made at 72, 96 and 120 hours. Leaf dip assays were performed with SB-P-81, and compared to a negative control vehicle and a current commercial insecticide Chlorantraniliprole. The activity of SB-P-81 is shown in Figure 6; SB-P-81 has good activity whilst being eco-friendly and targeted to specific pests unlike broad spectrum chemical insecticides such as Chlorantraniliprole.
# [2] = test system: Plutella xylostella; assay: Leaf dip assay 1 (based on IRAC susceptibility test method 018, performed by FERA); type: in vivo; conditions: unformulated peptide at 2x10^-4 M; Chinese cabbage leaf discs dipped 10 seconds; larvae (2nd/3rd instar); mortality assessed after 120 hours; Figure 4
# Experimental: The assay was carried out based on IRAC susceptibility test method 018 by a contract research organization, FERA Science Ltd. Test insects Larvae (2nd/3rd instar) were sourced from a laboratory culture of P. xylostella. The culture has been maintained in a controlled environment (CE) room with conditions of 25 °C and 16:8 lighting regime on Chinese cabbage plants. Chinese cabbage leaves were used in the bioassays. A CE room set at 25 °C and 60% r.h. with a 16 hour light: 8 hours dark lighting regime, was used. Leaf discs (approximately 35mm in diameter) were cut from fully expanded Chinese cabbage leaves. Each leaf disc was dipped in a separate peptide solution for 10 seconds with gentle agitation and placed on a damp filter paper (underside surface uppermost). There were ten replicates for each treatment and control, with five leaf discs per replicate. The treated discs were then put onto damp filter paper in the base of a Petri dishes (90 mm in diameter, 15 mm high) (underside surface uppermost). Five larvae were then transferred onto the treated leaf discs. The dishes were placed in the CE room and mortality was assessed after 120 hours. Leaf dip assays were performed with SB-P-81, and compared to a negative control vehicle and a current commercial insecticide Gazelle SG (shown as the active Acetamiprid). […]
compound,measurement,setting,value
"CSCC[C@H](NC(=O)[C@H](CO)NC(=O)CNC(=O)CN)C(=O)N[C@H](C(=O)N[C@@H](Cc1ccccc1)C(=O)N[C@@H](CO)C(=O)N1CCC[C@H]1C(=O)N[C@@H](CCCNC(=N)N)C(=O)N[C@@H](CC(C)C)C(N)=O)[C@@H](C)O [SB-P-81, [Hy]-GGSMTFSPRL-[NH2]] (H-GGSMTFSPRL-NH2)",activity against Plutella xylostella (mortality),[1],good activity
same,activity against Plutella xylostella (mortality),[2],good activity

# From EP4545547B1, “INSECT NEUROPEPTIDES” (Solasta Bio Limited, priority 2023, dated 2025)
